Test results published in ChEMBL document CHEMBL5506046, “Discovery of LLC355 as an Autophagy-Tethering Compound for the Degradation of Discoidin Domain Receptor 1” (J Med Chem, 2024).
Calls of active or inactive are those of the source. The calls are words filed in the database; no cut-off is given here.

Columns and labels:
[1] = target: T1, LC3/Epithelial discoidin domain-containing receptor 1 (Homo sapiens, UniProt Q08345+Q9BXW4+Q9GZQ8+Q9H492); test: Autophagosome tethering activity at DDR1 in human NCI-H23 cells assessed as protein degradation at 0.3 uM measured after 24 hrs by immunoblotting analysis relative to control; assay type: cell-based
NCI-H23 [2] = test: Inhibition of cell invasion in human NCI-H23 cells at 1 uM incubated for 24 hrs by transwell assay; assay type: functional, cell-based
NCI-H23 [3] = test: Inhibition of cell migration in human NCI-H23 cells at 1 uM incubated for 24 hrs by transwell assay; assay type: functional, cell-based
NCI-H23 [4] = test: Inhibition of tumorigenicity in human NCI-H23 cells at 1 uM incubated for 10 days by colony formation assay; assay type: functional, cell-based; conditions: time 10.0 day
[5] = target: T1, LC3/Epithelial discoidin domain-containing receptor 1; test: Autophagosome tethering activity at DDR1 in human NCI-H23 cells assessed as induction of protein degradation at 10 uM incubated for 6 hrs by Western blot analysis; assay type: cell-based
[6] = Cmax in Sprague-Dawley rat at 10 mg/kg, po measured up to 24 hrs by LC-MS/MS analysis; assay type: ADME, organism-based; conditions: in vivo
NCI-H23 [7] = test: Inhibition of cell invasion in human NCI-H23 cells at 0.3 uM incubated for 24 hrs by transwell assay; assay type: functional, cell-based
NCI-H23 [8] = test: Downregulation of BNIP3 expression in human NCI-H23 cells at 10 uM incubated for 6 hrs by Western blot analysis; assay type: functional, cell-based
[9] = target: T1, LC3/Epithelial discoidin domain-containing receptor 1; test: Autophagosome tethering activity at DDR1 in human NCI-H23 cells assessed as induction of protein degradation at 1 uM pretreated for 24 hrs followed by medium replacement with compound-free medium measured for 12 hrs by Western blot analysis; assay type: cell-based
NCI-H23 [10] = test: Downregulation of EXO1 expression in human NCI-H23 cells at 10 uM incubated for 6 hrs by Western blot analysis; assay type: functional, cell-based
[11] = target: T1, LC3/Epithelial discoidin domain-containing receptor 1; test: Autophagosome tethering activity at DDR1 in rapamycin-treated human NCI-H23 cells assessed as induction of protein degradation at 0.3 uM incubated for 12 hrs by Western blot analysis; assay type: cell-based
[12] = target: T1, LC3/Epithelial discoidin domain-containing receptor 1; test: Autophagosome tethering activity at DDR1 in human NCI-H23 cells assessed as induction of protein degradation incubated for 12 hrs by immunoblotting analysis; assay type: cell-based
[13] = target: T1, LC3/Epithelial discoidin domain-containing receptor 1; test: Autophagosome tethering activity at DDR1 in human MIA PaCa-2 cells assessed as induction of protein degradation at 100 to 1000 nM measured after 24 hrs by immunoblotting analysis; assay type: cell-based; conditions: dose 100-1000 nM
NCI-H23 [14] = test: Downregulation of PPIC expression in human NCI-H23 cells at 10 uM incubated for 6 hrs by Western blot analysis; assay type: functional, cell-based
NCI-H23 [15] = test: Downregulation of CDCA7 expression in human NCI-H23 cells at 10 uM incubated for 6 hrs by Western blot analysis; assay type: functional, cell-based
[16] = target: LC3/Discoidin domain-containing receptor 2 (Homo sapiens) (UniProt Q16832+Q9BXW4+Q9GZQ8+Q9H492); test: Autophagosome tethering activity at DDR2 in human NCI-H23 cells assessed as induction of protein degradation at 100 to 1000 nM incubated for 24 hrs by immunoblotting analysis; assay type: cell-based; conditions: dose 100-1000 nM
[17] = target: T1, LC3/Epithelial discoidin domain-containing receptor 1; test: Autophagosome tethering activity at DDR1 in human NCI-H23 cells assessed as induction of protein degradation at 10 uM incubated for 6 hrs by TMT-based global proteomic profiling analysis; assay type: cell-based
[18] = Half life in Sprague-Dawley rat at 2 mg/kg, iv measured up to 24 hrs by LC-MS/MS analysis; assay type: ADME, organism-based; conditions: in vivo
[19] = target: T1, LC3/Epithelial discoidin domain-containing receptor 1; test: Autophagosome tethering activity at DDR1 in human NCI-H23 cells assessed as induction of protein degradation at 1 uM measured for 1 to 24 hrs in presence of cycloheximide by immunoblotting analysis; assay type: cell-based; conditions: time 1-24 hrs
NCI-H23 [20] = test: Inhibition of tumorigenicity in human NCI-H23 cells at 0.1 to 1 uM incubated for 10 days by colony formation assay; assay type: functional, cell-based; conditions: dose 0.1-1 µM, time 10.0 day
[21] = Cmax in Sprague-Dawley rat at 2 mg/kg, iv measured up to 24 hrs by LC-MS/MS analysis; assay type: ADME, organism-based; conditions: in vivo
[22] = target: T1, LC3/Epithelial discoidin domain-containing receptor 1; test: Autophagosome tethering activity at DDR1 in chloroquine-treated human NCI-H23 cells assessed as induction of protein degradation at 1 uM incubated for 12 hrs by Western blot analysis; assay type: cell-based
[23] = target: T1, LC3/Epithelial discoidin domain-containing receptor 1; test: Autophagosome tethering activity at DDR1 in human PANC-1 cells assessed as induction of protein degradation at 100 to 1000 nM measured after 24 hrs by immunoblotting analysis; assay type: cell-based; conditions: dose 100-1000 nM
[24] = AUC(0 to t) in Sprague-Dawley rat at 10 mg/kg, po measured up to 24 hrs by LC-MS/MS analysis; assay type: ADME, organism-based; conditions: in vivo
NCI-H23 [25] = test: Inhibition of cell migration in human NCI-H23 cells at 0.3 uM incubated for 24 hrs by transwell assay; assay type: functional, cell-based
NCI-H23 [26] = test: Downregulation of GOLM1 expression in human NCI-H23 cells at 10 uM incubated for 6 hrs by Western blot analysis; assay type: functional, cell-based
[27] = Half life in Sprague-Dawley rat at 10 mg/kg, po measured up to 24 hrs by LC-MS/MS analysis; assay type: ADME, organism-based; conditions: in vivo
[28] = target: T1, LC3/Epithelial discoidin domain-containing receptor 1; test: Autophagosome tethering activity at DDR1 in human NCI-H23 cells assessed as induction of protein degradation at 1 uM by immunoblotting analysis; assay type: cell-based; conditions: time 1-24 hrs, TDE = time-dependent effect
[29] = Clearance in Sprague-Dawley rat at 2 mg/kg, iv measured up to 24 hrs by LC-MS/MS analysis; assay type: ADME, organism-based; conditions: in vivo
NCI-H23 [30] = test: Effect on DDR1 mRNA level in human NCI-H23 cells at 0.3 to 1 uM incubated for 24 hrs by qRT-PCR analysis; assay type: functional, cell-based; conditions: dose 0.3-1 µM
NCI-H23 [31] = test: Induction of apoptosis in human NCI-H23 cells assessed as increase in cleaved PARP level at 0.3 uM incubated for 24 hrs by Western blot analysis; assay type: functional, cell-based
[32] = target: T1, LC3/Epithelial discoidin domain-containing receptor 1; test: Autophagosome tethering activity at DDR1 in bafilomycin A1-treated human NCI-H23 cells assessed as induction of protein degradation at 1 uM incubated for 12 hrs by Western blot analysis; assay type: cell-based
[33] = target: T1, LC3/Epithelial discoidin domain-containing receptor 1; test: Autophagosome tethering activity at DDR1 in human NCI-H23 cells assessed as induction of protein degradation at 1 uM measured for >48 hrs by Western blot analysis; assay type: cell-based
NCI-H23 [34] = test: Downregulation of CDK4 expression in human NCI-H23 cells at 10 uM incubated for 6 hrs by Western blot analysis; assay type: functional, cell-based
[35] = Tmax in Sprague-Dawley rat at 10 mg/kg, po measured up to 24 hrs by LC-MS/MS analysis; assay type: ADME, organism-based; conditions: in vivo
NCI-H23 [36] = test: Induction of apoptosis in human NCI-H23 cells assessed as increase in cleaved PARP level at 1 uM incubated for 24 hrs by Western blot analysis; assay type: functional, cell-based
[37] = Toxicity in Sprague-Dawley rat at 10 mg/kg, po or 2 mg/kg, iv measured up to 24 hrs by LC-MS/MS analysis; assay type: organism-based; conditions: in vivo
NCI-H23 [38] = test: Downregulation of LIPA expression in human NCI-H23 cells at 10 uM incubated for 6 hrs by Western blot analysis; assay type: functional, cell-based
NCI-H23 [39] = test: Downregulation of REEP3 expression in human NCI-H23 cells at 10 uM incubated for 6 hrs by Western blot analysis; assay type: functional, cell-based
[40] = Toxicity in Sprague-Dawley rat assessed as drug tolerance at 10 mg/kg, po or 2 mg/kg, iv measured up to 24 hrs by LC-MS/MS analysis; assay type: organism-based; conditions: in vivo
[41] = AUC(0 to t) in Sprague-Dawley rat at 2 mg/kg, iv measured up to 24 hrs by LC-MS/MS analysis; assay type: ADME, organism-based; conditions: in vivo
NCI-H23 [42] = test: Downregulation of RBM3 expression in human NCI-H23 cells at 10 uM incubated for 6 hrs by Western blot analysis; assay type: functional, cell-based
[43] = Tmax in Sprague-Dawley rat at 2 mg/kg, iv measured up to 24 hrs by LC-MS/MS analysis; assay type: ADME, organism-based; conditions: in vivo
[44] = Oral bioavailability in Sprague-Dawley rat at 10 mg/kg measured up to 24 hrs by LC-MS/MS analysis; assay type: ADME, organism-based; conditions: in vivo

SMILES: CCc1ccc(C(=O)Nc2cc(CN3CCN(C(=O)COCCOCCOCCNC(=O)COc4c(Br)cc(/C=C5\C(=O)Nc6ccc(I)cc65)cc4Br)CC3)cc(C(F)(F)F)c2)cc1C#Cc1cnc2ccnn2c1
- Activity [1]: 0%

SMILES: CCc1ccc(C(=O)Nc2cc(CN3CCN(CCCCCCCCCC(=O)NCCCN(C(=O)c4ccc(C)cc4)[C@@H](c4nc5cc(Cl)ccc5c(=O)n4Cc4ccccc4)C(C)C)CC3)cc(C(F)(F)F)c2)cc1C#Cc1cnc2ccnn2c1
- Activity [1]: 0%

SMILES: CCc1ccc(C(=O)Nc2cc(CN3CCN(CCCC(=O)NCCCN(C(=O)c4ccc(C)cc4)[C@@H](c4nc5cc(Cl)ccc5c(=O)n4Cc4ccccc4)C(C)C)CC3)cc(C(F)(F)F)c2)cc1C#Cc1cnc2ccnn2c1
- Activity [1]: 6%

SMILES: CCc1ccc(C(=O)Nc2cc(CN3CCN(C(=O)CCCCCCCNC(=O)COc4c(Br)cc(/C=C5\C(=O)Nc6ccc(I)cc65)cc4Br)CC3)cc(C(F)(F)F)c2)cc1C#Cc1cnc2ccnn2c1
- Activity [1]: 9%

SMILES: CCc1ccc(C(=O)Nc2cc(CN3CCN(C(=O)CNC(=O)COc4c(Br)cc(/C=C5\C(=O)Nc6ccc(I)cc65)cc4Br)CC3)cc(C(F)(F)F)c2)cc1C#Cc1cnc2ccnn2c1
- Activity [1]: 16%

SMILES: CCc1ccc(C(=O)Nc2cc(CN3CCN(C)CC3)cc(C(F)(F)F)c2)cc1C#Cc1cnc2ccnn2c1
- inhibition (NCI-H23 [2]): inactive
- inhibition (NCI-H23 [3]): inactive
- inhibition (NCI-H23 [4]): inactive

SMILES: CCc1ccc(C(=O)Nc2cc(CN3CCN(C(=O)CCCNC(=O)COc4c(Br)cc(/C=C5\C(=O)Nc6ccc(I)cc65)cc4Br)CC3)cc(C(F)(F)F)c2)cc1C#Cc1cnc2ccnn2c1
- Activity [1]: 17%

SMILES: CCc1ccc(C(=O)Nc2cc(CN3CCN(CCOCC(=O)NCCCN(C(=O)c4ccc(C)cc4)[C@@H](c4nc5cc(Cl)ccc5c(=O)n4Cc4ccccc4)C(C)C)CC3)cc(C(F)(F)F)c2)cc1C#Cc1cnc2ccnn2c1
- Activity [5]: Active
- Cmax [6]: 226 ng/mL
- inhibition (NCI-H23 [7]): Active
- Activity (NCI-H23 [8]): Active
- Activity [9]: Active
- Activity (NCI-H23 [10]): Active
- Activity [11]: Active
- DC50 [12]: 151 nM
- Activity ([12]; dose 1-10000 nM): Dose-Dependent Effect
- Activity [13]: Active
- Activity (NCI-H23 [14]): Active
- Activity (NCI-H23 [15]): Active
- Activity [16]: inactive
- Activity [17]: Active
- half-life [18]: 3.18 h
- Activity [19]: inactive
- inhibition (NCI-H23 [20]): Active
- Cmax [21]: 27000 ng/mL
- Activity [22]: inactive
- Activity [23]: Active
- AUC(0-t) at 24 h [24]: 1150 ng·h/mL
- Activity [1]: 40%
- inhibition (NCI-H23 [25]): Active
- Activity (NCI-H23 [26]): Active
- half-life [27]: 3.99 h
- Activity [28]: Tde
- clearance [29]: 1.11 mL/min/kg
- Activity (NCI-H23 [30]): inactive
- Activity (NCI-H23 [31]): inactive
- Activity [32]: inactive
- Activity [33]: Active
- Activity (NCI-H23 [34]): Active
- Tmax [35]: 3.33 h
- Activity (NCI-H23 [36]): Active
- Activity [37]: Non-Toxic
- Activity (NCI-H23 [38]): Active
- Activity (NCI-H23 [39]): Active
- Activity [40]: Non-Toxic
- AUC(0-t) at 24 h [41]: 30100 ng·h/mL
- Activity (NCI-H23 [42]): Active
- Tmax [43]: 4.8 min
- bioavailability [44]: 0.77%

SMILES: CCc1ccc(C(=O)Nc2cc(CN3CCN(CC(=O)NCCCN(C(=O)c4ccc(C)cc4)[C@@H](c4nc5cc(Cl)ccc5c(=O)n4Cc4ccccc4)C(C)C)CC3)cc(C(F)(F)F)c2)cc1C#Cc1cnc2ccnn2c1
- Activity [1]: 4%
